Consider 1 compound from publication PMC8551148, “Identification and characterization of deschloro-chlorothricin obtained from a large natural product library targeting aurora A kinase in multiple myeloma” (Investigational New Drugs, 2020).

The target in the experiment is T1, Aurora A kinase (AURKA) (Homo sapiens, UniProt O14965).
T1 sequence (O14965 1-403): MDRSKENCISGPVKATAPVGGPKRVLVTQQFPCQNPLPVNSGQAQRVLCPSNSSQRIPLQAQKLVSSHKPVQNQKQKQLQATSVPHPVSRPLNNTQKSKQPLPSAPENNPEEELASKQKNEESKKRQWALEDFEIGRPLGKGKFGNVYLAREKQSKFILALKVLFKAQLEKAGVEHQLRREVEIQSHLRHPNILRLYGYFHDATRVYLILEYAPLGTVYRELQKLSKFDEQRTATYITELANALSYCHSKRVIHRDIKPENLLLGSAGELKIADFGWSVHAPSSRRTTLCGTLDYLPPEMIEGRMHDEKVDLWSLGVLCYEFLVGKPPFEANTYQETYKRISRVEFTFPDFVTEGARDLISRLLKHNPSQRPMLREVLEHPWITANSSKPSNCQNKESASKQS
Description: microscale thermophoresis with RED-NHS labelled purified AURKA ([…]). In kind it is binding.

A word on the Kd: it is the free concentration of one partner at which half of the binding sites on the other are occupied at equilibrium, for simple one-to-one binding. High values mean a looser complex, low ones a tighter complex. The compound `COc1cccc(C)c1C(=O)O[C@@H]1C[C@H](O[C@H]2[C@H](O)C[C@H](O[C@@H]3CCC[C@H]4[C@H]3C=C[C@@H]3CCCC/C=C\[C@H]5C=C(C(=O)O)[C@@H](C)C[C@@]56OC(=O)C(=C6O)OC(=O)[C@@]34C)O[C@@H]2C)O[C@H](C)[C@H]1O` [Compound 5, deschloro-chlorothricin] returned a dissociation constant Kd of 8.17 µM.
